Consider eleven molecules from patent US20120128630A1, “1-(6 MEMBERS AZO-HETEROCYCLIC)-PYRROLIN-2-ONE COMPOUNDS AS INHIBITORS OF HEPATITIS C NS5B POLYMERASE, THE PHARAMACEUTICAL COMPOSITION THEREOF AND THEIR THERAPEUTIC USE” (priority 2009, published 2012).

The target of experiment [1] is T1, HCV NS5B genotype 1b (Hepatitis C virus genotype 1b, UniProt Q9WMX2).
T1 construct: The protein was expressed with a 21 amino acid C-terminal deletion to remove transmembrane domain; expressed in transfected cells; host or cells: Huh-7
Nature of the experiment: 3D-SCREEN assay (NS5B 3D-Screen platform, luciferase reporter gene). Type of experiment: cell-based. As to conditions: EC50_3DS_NS5B. Summed up: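 Huh-7 cells transiently co-transfected with NS5BΔ21/Gal4-DBD, 3D-Sensor peptide I4/VP16 and firefly luciferase reporter. Compounds added 2 h after seeding, 1% DMSO final, 24 h incubation. Luciferase luminescence read; % inhibition relative to no-compound signal.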

The test system of experiment [2] is HCV replicon Luc Neo ET. Nature of the experiment: Luc Neo ET Replicon assay. In kind it is cell-based, Hepatitis C virus. The conditions noted are these: Hepatitis C virus, 72 h, Table 3, titled RdRp enzyme assay results, EC50_Replicon LucneoET; 72 hours with compound, luciferase. How it is done: Human Hepatoma Huh-7 cell line was maintained in DMEM/HAMF-12 supplemented with 10% SVF, 4 mM glutamine, […] Na pyruvate, 1% penistreptomycine. HCV replicon containing Huh-7 cell lines Huh-9.13 and Luc Neo ET (Reblikon) were maintained in DMEM supplemented with 10% SVF, 2 mM glutamine, and 1×NEAA, 100 U/ml penicillin, and 100 μg/ml streptomycine. Replicon cells were maintained in medium supplemented with 1 mg/ml G418 for replicon Huh-9.13 and 0.5 mg/ml for Luc Neo et replicon unless indicated otherwise. Huh-7 and HCV replicon cell lines were maintained at 37° C. and 5% CO2 in a humidified atmosphere. Cells were dissociated at sub confluence with trypsin EDTA 1×.
Replicon Luc Neo ET is a bicistronic expression constructs (Lohmann et al, 1999, Science 285, 110-113). In brief, the structural genes of the HCV genome were replaced by heterologous sequences; the gene encoding the neomycin phosphotransferase (NPT) and the internal ribosome entry site (IRES) of the encephalomyocarditis virus (EMCV). The bicistronic construct is therefore composed of the following elements: HCV-IRES nucleotides 1-389, the NPT gene, the EMCV-IRES directing translation of downstream HCV sequences from NS2 or NS3 up to the authentic 3′ end of the genome. HCV Polyprotein harbours the cell culture adaptive mutations E1202G, T1280I, K1846T. G418-resistance is only possible with cells containing high amounts of replicon.
Cells were dissociated the day before addition of compounds and seeded in 96 well-plates at a final concentration of 77 777.77 cells.ml^−1.well^−2 in 90 μl final volume of culture medium per well and were maintained at 37° C. and 5% CO2 in a humidified atmosphere for 24 hours. 10 μl of compounds to be tested were added 24 hours after seeding. Final concentration of DMSO was 1%. Cells were incubated in the presence of compounds for 72 hours after which expression of firefly luciferase reporter gene was quantified. Briefly, culture medium was removed and cells were lysed by addition of 100 μl of lysis buffer containing 125 mM Tris Phosphate ph 7.8, 10 mM EDTA, 5 mM DTT, 50% glycerol and 5% Triton. Plates were vortexed 10 min at 1300 rpm. Cell lysat was transferred in OpaqueWhite Assay 96 well Flat Bottom plates. 100 μl of luciferin solution 1× were added to each well. Luciferin solution contained 40 mM Tris Phosphate ph 7.8, 0.2 mM EDTA, 67 mM DTT, 2.14 mM MgCl2, 5.4 mM MgSO4, 4.7×10^−4 M luciferin, 5.3×10^−4 M ATP and 2.7×10^−4 M Acetyl co enzyme A. Luminescence was immediately measured with Berthold Microlumat Plus LB 96V luminometer with an integration of 0.5 sec Inhibition was calculated using the formula:
% inhibition=1−[(RLUsample−RLUbackground)/(RLUsignal−RLUbackground)]
For orientation: In antiviral work, replicon cells carry a viral genome segment that copies itself.

Setting [3] is: Table 2, titled Replicon assay results.

SMILES strings stand for the structures. pEC50: −log10 of the molar value.

A word on the pEC50: it is the negative decadic logarithm of the EC50, by convention in mol/L. Consider `Cc1ccc(C(=O)C2=C(O)C(=O)N(c3ccccn3)C2c2ccc(C(C)(C)C)cc2)cc1` (stereo not shown) [Example 2, 5-(4-tert-butyl-phenyl)-3-hydroxy-4-(4-methyl-benzoyl)-1-pyridin-2-yl-1,5-dihydro-pyrrol-2-one], for which the negative logarithm of the EC50 (pEC50) was 5.05 in experiment [1] (Table 1, 3D-SCREEN assay results, Huh-7 cells, 24 hours with compound, firefly luciferase reporter) and greater than 5.00 in experiment [2].

Take `CC(=O)OC1=C(C(=O)c2ccc(C(C)C)cc2)C(c2ccc(OC(F)(F)F)cc2)N(c2ccc(C)nn2)C1=O` (stereo not shown) [Example 86, Acetic acid 4-(4-isopropyl-benzoyl)-1-(6-methyl-pyridazin-3-yl)-2-oxo-5-(4-trifluoromethoxy-phenyl)-2,5-dihydro-1H-pyrrol-3-yl ester]: the pEC50 in experiment [1] (setting [3]) is greater than 7.00; in experiment [2], greater than 6.00.

On to `Cc1ccc(N2C(=O)C(O)=C(C(=O)c3ccc(OC(F)(F)F)cc3)C2c2ccc(C(C)C)cc2)cn1` (stereo not shown) [Example 94, 3-hydroxy-5-(4-isopropyl-phenyl)-1-(6-methyl-pyridin-3-yl)-4-(4-trifluoromethoxy-benzoyl)-1,5-dihydro-pyrrol-2-one], for which the pEC50 in experiment [1] (setting [3]) and in experiment [2] was greater than 5.00 throughout.

Consider `Cc1ccc(N2C(=O)C(O)=C(C(=O)c3ccc(OC(F)(F)F)cc3)C2c2ccc(OC(F)(F)F)cc2)nn1` (stereo not shown) [Example 96, 3-hydroxy-1-(6-methyl-pyridazin-3-yl)-4-(4-trifluoromethoxy-benzoyl)-5-(4-trifluoromethoxy-phenyl)-1,5-dihydro-pyrrol-2-one], for which the pEC50 in experiment [1] (setting [3]) and in experiment [2] was greater than 6.00 in each case.

On to `Cc1ccc(N2C(=O)C(O)=C(C(=O)c3ccc(C(C)C)cc3)C2c2ccc(C(F)(F)F)nc2)nn1` (stereo not shown) [Example 98, 3-hydroxy-4-(4-isopropyl-benzoyl)-1-(6-methyl-pyridazin-3-yl)-5-(6-trifluoromethyl-pyridin-3-yl)-1,5-dihydro-pyrrol-2-one], for which the pEC50 in experiment [1] (setting [3]) and in experiment [2] was greater than 5.00 in each case.

Consider `Cc1ccc(N2C(=O)C(O)=C(C(=O)c3ccc(C(C)C)cc3)C2c2ccc(C(F)(F)F)cn2)nn1` (stereo not shown) [Example 106, 3-hydroxy-4-(4-isopropyl-benzoyl)-1-(6-methyl-pyridazin-3-yl)-5-(5-trifluoromethyl-pyridin-2-yl)-1,5-dihydro-pyrrol-2-one], for which the pEC50 in experiment [1] (setting [3]) and in experiment [2] was greater than 5.00 each time.

`CCOc1ccc(C2C(C(=O)c3ccc(C(C)C)cc3)=C(O)C(=O)N2c2ccc(C)nn2)cn1` (stereo not shown) [Example 110, 5-(6-ethoxy-pyridin-3-yl)-3-hydroxy-4-(4-isopropyl-benzoyl)-1-(6-methyl-pyridazin-3-yl)-1,5-dihydro-pyrrol-2-one]: the pEC50 in experiment [1] (setting [3]) and in experiment [2] was greater than 6.00 throughout.

Consider `Cc1ccc(N2C(=O)C(O)=C(C(=O)c3ccc(C(C)C)cc3)C2c2ccc(C(C)C)cn2)nn1` (stereo not shown) [Example 111, 3-Hydroxy-4-(4-isopropyl-benzoyl)-5-(5-isopropyl-pyridin-2-yl)-1-(6-methyl-pyridazin-3-yl)-1,5-dihydro-pyrrol-2-one], for which the pEC50 in experiment [1] (setting [3]) and in experiment [2] was greater than 5.00 throughout.

Regarding `Cc1ccc(N2C(=O)C(O)=C(C(=O)c3ccc(OC(C)C)cc3)C2c2ccc(OC(F)(F)F)cc2)nn1` (stereo not shown) [Example 115, 3-hydroxy-4-(4-isopropoxy-benzoyl)-1-(6-methyl-pyridazin-3-yl)-5-(4-trifluoromethoxy-phenyl)-1,5-dihydro-pyrrol-2-one], the pEC50 in experiment [1] (setting [3]) and in experiment [2] was greater than 5.00 each time.

As for `CC(C)c1ccc(C(=O)C2=C(O)C(=O)N(c3ccc(Cl)nn3)C2c2ccc(OC(F)(F)F)cc2)cc1` (stereo not shown) [Example 118, 1-(6-chloro-pyridazin-3-yl)-3-hydroxy-4-(4-isopropyl-benzoyl)-5-(4-trifluoromethoxy-phenyl)-1,5-dihydro-pyrrol-2-one], the negative logarithm of the EC50 (pEC50) in experiment [1] (setting [3]) and in experiment [2] was greater than 6.00 each time.

`C#Cc1ccc(C2C(C(=O)c3ccc(C(C)C)cc3)=C(O)C(=O)N2c2ccc(C)nn2)cc1` (stereo not shown) [Example 137, 5-(4-ethynyl-phenyl)-3-hydroxy-4-(4-isopropyl-benzoyl)-1-(6-methyl-pyridazin-3-yl)-1,5-dihydro-pyrrol-2-one]: the pEC50 in experiment [1] (setting [3]) and in experiment [2] was greater than 5.00 in each case.
